Test results as given in patent publication US10669272B2, “Substituted naphthyridinone compounds useful as T cell activators” (BRISTOL-MYERS SQUIBB COMPANY, priority 2018, dated 2020).
pEC50, pIC50: −log10 of the molar value. Where a name gives a salt, the structure may show the parent alone. Read-outs that look alike come from different tables or passages of the source.

Assays:
human DGKα = biological target: T1, human DGKα (Homo sapiens, UniProt P23743); experiment: DGKα LIPGLO assay (extruded liposome substrate), in vitro DGK inhibition; format: biochemical; details: liposome (LIPGLO) assay; read-out: DGKa LIPGLO IC50
T1 construct: TVMV protease cleavage site (C); Hexa-His (C); made in house; host or cells: Sf9 insect cells (baculovirus, Bac-to-Bac)

Human venous whole blood = experiment: Human whole blood IFN-γ assay; format: cell-based; details: human whole blood, normalized to 3 μM reference compound with anti-CD3 plus anti-CD28 as 100% activation, read-out: INFg Whole Blood Normalized Agonist EC50;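 also: blood from healthy donors exposed to compound for 1 h before stimulation with anti-CD3 and anti-CD28 at 1 µg/mL each, IFN-γ quantified in supernatant by AlphaLISA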
Experimental: Human Whole Blood IFN-γ Assay
Human venous whole blood (22.5 μL per well), obtained from healthy donors, was pre-treated with compounds for one hour at 37° C. in a humidified 95% air/5% CO2 incubator. The blood was stimulated with 2.5 μL anti-human CD3 and anti-CD28 mAb at a final concentration of 1 μg/mL each for 24 hours at 37° C. IFN-γ in the supernatants was measured using AlphLISA kit (Cat # AL217).

human DGKζ = biological target: T2, human DGKζ (Homo sapiens, UniProt Q13574); experiment: DGKζ LIPGLO assay (extruded liposome substrate), in vitro DGK inhibition; format: biochemical; details: liposome (LIPGLO) assay; read-out: DGKz LIPGLO IC50
T2 construct: TVMV protease cleavage site (C); Hexa-His (C); made in house; host or cells: Sf9 insect cells (baculovirus, Bac-to-Bac)
T2 sequence (Q13574 with tags, fused parts or gaps isoform Q13574-4): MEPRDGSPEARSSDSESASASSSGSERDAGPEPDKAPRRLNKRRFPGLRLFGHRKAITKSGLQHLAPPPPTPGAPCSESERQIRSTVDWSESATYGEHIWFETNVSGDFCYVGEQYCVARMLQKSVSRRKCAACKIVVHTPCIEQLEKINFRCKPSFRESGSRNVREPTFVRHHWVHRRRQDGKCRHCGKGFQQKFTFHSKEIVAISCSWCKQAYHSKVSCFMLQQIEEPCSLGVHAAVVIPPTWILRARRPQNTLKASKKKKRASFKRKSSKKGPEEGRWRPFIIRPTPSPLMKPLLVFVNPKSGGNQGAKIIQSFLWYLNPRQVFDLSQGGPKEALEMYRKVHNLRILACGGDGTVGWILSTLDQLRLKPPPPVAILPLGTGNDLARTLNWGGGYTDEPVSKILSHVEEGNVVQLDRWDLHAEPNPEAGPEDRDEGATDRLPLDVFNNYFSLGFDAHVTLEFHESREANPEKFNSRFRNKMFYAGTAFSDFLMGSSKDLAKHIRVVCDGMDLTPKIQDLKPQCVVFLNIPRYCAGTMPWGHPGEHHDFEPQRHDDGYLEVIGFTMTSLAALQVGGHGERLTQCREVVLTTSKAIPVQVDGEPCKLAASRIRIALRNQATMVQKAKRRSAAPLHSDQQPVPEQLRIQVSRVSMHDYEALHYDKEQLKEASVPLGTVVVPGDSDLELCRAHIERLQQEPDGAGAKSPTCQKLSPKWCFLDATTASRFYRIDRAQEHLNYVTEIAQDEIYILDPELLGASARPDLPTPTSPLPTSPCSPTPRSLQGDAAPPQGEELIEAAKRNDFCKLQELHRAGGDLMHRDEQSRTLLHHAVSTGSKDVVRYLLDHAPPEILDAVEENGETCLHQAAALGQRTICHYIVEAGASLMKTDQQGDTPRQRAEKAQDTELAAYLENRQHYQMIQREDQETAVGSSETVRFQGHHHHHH

T1 sequence (P23743 with tags, fused parts or gaps): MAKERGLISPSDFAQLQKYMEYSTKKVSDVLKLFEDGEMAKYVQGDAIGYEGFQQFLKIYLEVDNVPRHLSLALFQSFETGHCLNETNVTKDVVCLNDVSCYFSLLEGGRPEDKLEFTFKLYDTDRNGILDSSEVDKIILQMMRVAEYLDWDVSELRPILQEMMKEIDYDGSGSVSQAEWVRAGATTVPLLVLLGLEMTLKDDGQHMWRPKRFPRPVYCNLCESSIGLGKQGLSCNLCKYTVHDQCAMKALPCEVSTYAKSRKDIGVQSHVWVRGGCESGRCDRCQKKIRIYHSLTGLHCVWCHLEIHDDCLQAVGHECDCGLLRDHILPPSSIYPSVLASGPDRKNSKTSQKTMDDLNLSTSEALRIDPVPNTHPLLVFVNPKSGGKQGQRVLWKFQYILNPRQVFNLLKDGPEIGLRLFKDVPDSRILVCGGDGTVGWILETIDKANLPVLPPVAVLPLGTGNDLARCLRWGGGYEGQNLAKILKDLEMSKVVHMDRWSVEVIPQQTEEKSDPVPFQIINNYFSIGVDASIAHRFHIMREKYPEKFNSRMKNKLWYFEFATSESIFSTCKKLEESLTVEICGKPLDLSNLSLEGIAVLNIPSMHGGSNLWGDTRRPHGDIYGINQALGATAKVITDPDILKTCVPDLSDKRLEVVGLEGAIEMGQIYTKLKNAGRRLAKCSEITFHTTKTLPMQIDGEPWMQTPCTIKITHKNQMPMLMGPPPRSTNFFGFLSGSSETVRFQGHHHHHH

SMILES | pIC50 (human DGKα) | pEC50 (Human venous whole blood) | pIC50 (human DGKζ) | pEC50 (Human venous whole blood; TFA) | pEC50 (Human venous whole blood; Homo sapiens, 24 h)
COC(=O)C1CN(c2cc(=O)n(C)c3ccc(C#N)nc23)CCN1C(c1ccc(Cl)cc1)c1ccc(Cl)cc1 (single isomer, unassigned) [Example 96, methyl 1-(bis(4-chlorophenyl)methyl)-4-(6-cyano-1-methyl-2-oxo-1,2-dihydro-1,5-naphthyridin-4-yl)piperazine-2-carboxylate] | 3.62 | 4.89 | 4.85 | – | –
Cn1c(=O)cc(N2CCN(C(c3ccc(F)cc3)c3ccc(F)cc3)CC2c2ccccc2)c2nc(C#N)ccc21 (single isomer, unassigned) [Example 155, 8-(4-(bis(4-fluorophenyl)methyl)-2-phenylpiperazin-1-yl)-5-methyl-6-oxo-5,6-dihydro-1,5-naphthyridine-2-carbonitrile] | 3.62 | 4.70 | 3.62 | – | –
C[C@@H]1CN(c2cc(=O)n(C)c3ccc(C#N)nc23)[C@@H](C)CN1C(c1ccccc1)c1c(F)cccc1F (single isomer, unassigned) [Example 273, TFA] | 5.42 | – | 4.82 | 5.15 | –
Cc1ccc(C(c2ccc(C#N)cc2)N2C[C@H](C)N(c3cc(=O)n(C)c4ccc(C#N)nc34)C[C@H]2C)cc1 (single isomer, unassigned) [Example 310, TFA salt] | 5.89 | – | 5.80 | – | 5.72
C[C@@H]1CN(c2c(C#N)c(=O)n(C)c3ccc(C#N)nc23)CCN1C(c1ccc(Cl)cc1)c1ccncn1 (single isomer, unassigned) [Example 319] | 5.66 | – | 5.18 | – | 5.80
C[C@@H]1CN(c2c(F)c(=O)n(C)c3ccc(C#N)nc23)[C@@H](C)CN1C(c1ccc(F)cc1)c1c(F)cccc1F (single isomer, unassigned) [Example 329] | 5.44 | 4.89 | 5.35 | – | –
C[C@@H]1CN(c2c(F)c(=O)n(C)c3ccc(C#N)nc23)[C@@H](C)CN1C(c1ccc(F)cc1)c1cccc(F)c1 (single isomer, unassigned) [Example 330] | 6.59 | 5.92 | 6.30 | – | –
C[C@@H]1CN(c2c(F)c(=O)n(C)c3ccc(C#N)nc23)[C@@H](C)CN1C(c1ccc(F)cc1)c1cccc(F)c1 (single isomer, unassigned) [Example 331] | 5.77 | 4.70 | 5.72 | – | –
C[C@@H]1CN(c2c(F)c(=O)n(C)c3ccc(C#N)nc23)[C@@H](C)CN1C(c1ccc(F)cc1)c1c(F)cccc1F (single isomer, unassigned) [Example 336] | 6.13 | 5.70 | 6.64 | – | –
CC[C@@H]1CN(c2cc(=O)n(C)c3ccc(C#N)nc23)[C@@H](C)CN1C(c1ccc(OC(F)(F)F)cc1)c1ccccn1 (single isomer, unassigned) [Example 340] | 6.49 | – | 6.66 | – | 7.10
CC[C@@H]1CN(c2cc(=O)n(C)c3ccc(C#N)nc23)[C@@H](C)CN1C(c1ccc(OC(F)(F)F)cc1)c1ccccn1 (single isomer, unassigned) [Example 341] | 7.16 | 6.92 | 6.26 | – | –
CC(c1ccc(C(F)(F)F)cc1)N1C[C@@H](C)N(c2cc(=O)n(C)c3ccc(C#N)nc23)C[C@@H]1C (single isomer, unassigned) [Example 345] | 5.40 | 5.17 | 4.48 | – | –
CC(c1ccc(C(F)(F)F)cc1)N1C[C@@H](C)N(c2cc(=O)n(C)c3ccc(C#N)nc23)C[C@@H]1C (single isomer, unassigned) [Example 346] | 5.89 | 5.96 | 5.82 | – | –
CCc1ccc(C(c2cccc(Cl)c2)N2C[C@H](C)N(c3cc(=O)n(C)c4ccc(C#N)nc34)C[C@H]2C)nc1 (single isomer, unassigned) [Example 355] | 6.05 | – | 6.13 | – | 6.47
CCC(c1cc(Cl)cc2c1OCC2)N1C[C@H](C)N(c2cc(=O)n(C)c3ccc(C#N)nc23)C[C@H]1C (single isomer, unassigned) [Example 356] | < 3.60 | – | 6.38 | – | 4.70
C[C@@H]1CN(c2cc(=O)n(C)c3ccc(C#N)nc23)[C@@H](C)CN1C(c1ccc(F)cc1)C1CCCCO1 (single isomer, unassigned) [Example 358] | 5.05 | – | 4.68 | – | 6.00
Cc1ccc(C(c2ccc(C#N)cc2)N2C[C@H](C)N(c3cc(=O)n(C)c4ccc(C#N)nc34)C[C@H]2C)nc1 (single isomer, unassigned) [Example 361] | 6.68 | 5.96 | 5.96 | – | –
Cc1ccc(C(c2ccc(Cl)cc2)N2C[C@H](C)N(c3cc(=O)n(C)c4ccc(C#N)nc34)C[C@H]2C)nc1 (single isomer, unassigned) [Example 365] | 6.57 | 6.44 | 6.11 | – | –
C[C@@H]1CN(c2cc(=O)n(C)c3ccc(C#N)nc23)[C@@H](C)CN1C(c1cccc(F)c1)c1ccccn1 (single isomer, unassigned) [Example 379] | 5.70 | – | 5.68 | – | 5.96
Cc1ccc(C(c2ccc(C)c(Cl)c2)N2C[C@H](C)N(c3cc(=O)n(C)c4ccc(C#N)nc34)C[C@H]2C)nc1 (single isomer, unassigned) [Example 380] | 5.51 | 6.20 | 5.80 | – | –
C[C@@H]1CN(c2cc(=O)n(C)c3ccc(C#N)nc23)[C@@H](C)CN1C(c1ccc(Cl)cc1)c1ccccn1 (single isomer, unassigned) [Example 382] | 6.66 | 5.59 | 5.60 | – | –
C[C@@H]1CN(c2cc(=O)n(C)c3ccc(C#N)nc23)[C@@H](C)CN1C(c1ccc(F)cc1)c1cccnn1 (single isomer, unassigned) [Example 383] | 5.25 | – | 4.89 | – | 5.49
C[C@@H]1CN(c2cc(=O)n(C)c3ccc(C#N)nc23)[C@@H](C)CN1C(c1ccc(F)cc1)C1CCOCC1 (single isomer, unassigned) [Example 387] | 5.82 | – | 5.51 | – | 5.44
Cc1ccc(C(c2cccc(F)c2)N2C[C@H](C)N(c3cc(=O)n(C)c4ccc(C#N)nc34)C[C@H]2C)cn1 (single isomer, unassigned) [Example 390] | 4.77 | 5.59 | 5.13 | – | –
C[C@@H]1CN(c2cc(=O)n(C)c3ccc(C#N)nc23)[C@@H](C)CN1C(c1ccc(F)cc1)c1cncnc1 (single isomer, unassigned) [Example 393] | 5.80 | 5.46 | 5.15 | – | –
C[C@@H]1CN(c2cc(=O)n(C)c3ccc(C#N)nc23)[C@@H](C)CN1C(c1ccc(F)cc1)c1cncnc1 (single isomer, unassigned) [Example 394] | 4.38 | 4.74 | 4.31 | – | –
Cc1ccc(C(c2cccc(F)c2)N2C[C@H](C)N(c3cc(=O)n(C)c4ccc(C#N)nc34)C[C@H]2C)cn1 (single isomer, unassigned) [Example 395] | 4.32 | 5.20 | 5.11 | – | –
C[C@@H]1CN(c2cc(=O)n(C)c3ccc(C#N)nc23)[C@@H](C)CN1C(c1ccc(Cl)cc1)c1ccncn1 (single isomer, unassigned) [Example 396] | 5.89 | – | 5.44 | – | 6.72
